Reference: ChEMBL document CHEMBL1154116, “Predictive models, based on classification algorithms, for compounds potentially active as mitochondrial ATP-sensitive potassium channel openers” (Bioorg Med Chem, 2009)
The source made the active and inactive calls. The rule behind the calls is not given here.

System: Heart
Experiment: Cardioprotective effect in Langendorff perfused isolated rat hearts assessed as reduction in ischemic injury
Format: functional, tissue-based

SMILES	Activity
CC1(C)CC2(CN(Cc3ccc(NS(C)(=O)=O)cc3)C(=O)CO2)c2ccccc2O1 (stereo not given)	Active
CC1(C)CC2(CN(Cc3ccccc3)CCO2)c2ccccc2O1 (stereo not given)	Active
CC1(C)CC2(CN(Cc3ccc(C(F)(F)F)cc3)CCO2)c2ccccc2O1 (stereo not given)	inactive
CC1=Nc2ccc(Cl)cc2S(=O)(=O)N1	Active
CC(N/C(=N\C#N)Nc1ccncc1)C(C)(C)C (stereo not given)	Active
CC1(C)CC2(CN(Cc3ccc(C(F)(F)F)cc3)C(=O)CO2)c2ccccc2O1 (stereo not given)	inactive
COc1cccc(CN2CCOC3(C2)CC(C)(C)Oc2ccccc23)c1 (stereo not given)	inactive
COc1cccc(CN2CCOC3(C2)CC(C)(C)Oc2ccc(Br)cc23)c1 (stereo not given)	Active
CC(=O)Nc1ccc(CN2CC3(CC(C)(C)Oc4ccc(Br)cc43)OCC2=O)cc1 (stereo not given)	inactive
CC(=O)Nc1ccc(CN2CCOC3(C2)CC(C)(C)Oc2ccc(Br)cc23)cc1 (stereo not given)	inactive
COc1ccc(CN2CCOC3(C2)CC(C)(C)Oc2ccccc23)cc1 (stereo not given)	Active
CC1(C)CC2(OC(=O)N(Cc3ccc(NS(C)(=O)=O)cc3)C2=N)c2ccccc2O1 (stereo not given)	inactive
CC1(C)CC2(CN(Cc3ccccc3)C(=S)CO2)c2cc(Br)ccc2O1 (stereo not given)	inactive
COc1ccc(CN2CC3(CC(C)(C)Oc4ccc(Br)cc43)OCC2=O)cc1 (stereo not given)	Active
CC1(C)CN(C2=CCCC2=O)c2cc([N+](=O)[O-])ccc2S1	Active
CC1(C)CC2(CN(Cc3ccc(NS(C)(=O)=O)cc3)CCO2)c2cc(Br)ccc2O1 (stereo not given)	Active
CC1(C)CC2(CN(S(=O)(=O)c3ccccc3)CCO2)c2ccccc2O1 (stereo not given)	inactive
CC1(C)CC2(OC(=O)N(Cc3ccccc3)C2=N)c2cc(Br)ccc2O1 (stereo not given)	inactive
CC1(C)CC2(CN(Cc3ccc(N)cc3)CCO2)c2cc(Br)ccc2O1 (stereo not given)	inactive
COc1cccc(CN2CC3(CC(C)(C)Oc4ccc(Br)cc43)OCC2=O)c1 (stereo not given)	inactive

SMILES	Activity
CC1(C)CC2(CN(Cc3ccccc3)C(=S)CO2)c2ccccc2O1 (stereo not given)	Active
COc1ccccc1CN1CC2(CC(C)(C)Oc3ccccc32)OCC1=O (stereo not given)	Active
CC1(C)CN(C2=CCCC2=O)c2cc(C(F)(F)F)ccc2S1	Active
CCC(C)(C)/N=C(\NC#N)Nc1cccnc1	inactive
CC1(C)CC2(CN(S(=O)(=O)c3ccccc3)C(=O)CO2)c2ccccc2O1 (stereo not given)	inactive
Cc1ccc(CN2CC3(CC(C)(C)Oc4ccc(Br)cc43)OCC2=O)cc1 (stereo not given)	inactive
CC1(C)Oc2ccc(C#N)cc2C(N2CCCC2=O)C1O (stereo not given)	Active
CC1(C)CC2(CN(Cc3ccc(N)cc3)C(=O)CO2)c2cc(Br)ccc2O1 (stereo not given)	Active
CC1(C)CC2(CN(Cc3ccccc3)C(=O)CO2)c2ccccc2O1 (stereo not given)	inactive
CC1(C)CC2(CN(Cc3ccc(NS(C)(=O)=O)cc3)C(=O)CO2)c2cc(Br)ccc2O1 (stereo not given)	Active
COc1ccc(CN2CCOC3(C2)CC(C)(C)Oc2ccc(Br)cc23)cc1 (stereo not given)	inactive
CC1(C)CC2(CN(C(=O)c3ccccc3)CCO2)c2ccccc2O1 (stereo not given)	inactive
COc1ccccc1CN1CC2(CC(C)(C)Oc3ccc(Br)cc32)OCC1=O (stereo not given)	Active
Cc1ccc(C(=O)N2CCOC3(C2)CC(C)(C)Oc2ccccc23)cc1 (stereo not given)	inactive
CC(=O)Nc1ccc(CN2CC3(CC(C)(C)Oc4ccccc43)OC2=O)cc1 (stereo not given)	inactive
CC1(C)Oc2ccc(C#N)cc2[C@@H](/N=C(\NC#N)Nc2ccc(Cl)cc2)[C@@H]1O (single isomer, unassigned)	Active
CC1(C)CC2(CN(Cc3ccccc3)C(=O)CO2)c2cc(Br)ccc2O1 (stereo not given)	inactive
CC1(C)CC2(CN(Cc3ccc(NS(C)(=O)=O)cc3)CCO2)c2ccccc2O1 (stereo not given)	inactive
CC1(C)CC2(CN(Cc3ccc(C(F)(F)F)cc3)CCO2)c2cc(Br)ccc2O1 (stereo not given)	Active
CC1(C)CC2(CN(Cc3ccc(N)cc3)C(=O)CO2)c2ccccc2O1 (stereo not given)	Active

SMILES	Activity
CC1(C)CC2(OC(=O)N(Cc3ccc(NS(C)(=O)=O)cc3)C2=N)c2cc(Br)ccc2O1 (stereo not given)	inactive
Cc1ccc(CN2CCOC3(C2)CC(C)(C)Oc2ccc(Br)cc23)cc1 (stereo not given)	Active
CC(=O)Nc1ccc(CN2CC3(CC(C)(C)Oc4ccccc43)OCC2=O)cc1 (stereo not given)	Active
CC1(C)CC2(CN(Cc3ccc(N)cc3)CCO2)c2ccccc2O1 (stereo not given)	Active
COc1cccc(CN2CC3(CC(C)(C)Oc4ccccc43)OCC2=O)c1 (stereo not given)	inactive
CC1(C)CC2(CN(Cc3ccc(Br)cc3)CCO2)c2ccccc2O1 (stereo not given)	inactive
Cc1ccc(CN2CC3(CC(C)(C)Oc4ccccc43)OCC2=O)cc1 (stereo not given)	inactive
CC(=O)Nc1ccc(C(=O)N2CCOC3(C2)CC(C)(C)Oc2ccccc23)cc1 (stereo not given)	inactive
CC1(C)CC2(CN(Cc3ccc(NS(C)(=O)=O)cc3)C(=O)O2)c2ccccc2O1 (stereo not given)	inactive
CC1(C)Oc2ccc(C#N)cc2[C@H](N(Cc2ncc[nH]2)c2ccc(Cl)cc2)[C@H]1O	Active
Cc1ccc(CN2CCOC3(C2)CC(C)(C)Oc2ccccc23)cc1 (stereo not given)	Active
CC1(C)CC2(CN(Cc3ccc(Br)cc3)C(=O)CO2)c2cc(Br)ccc2O1 (stereo not given)	inactive
CC1(C)CC2(CN(C(=O)c3ccccc3)C(=O)CO2)c2ccccc2O1 (stereo not given)	inactive
CC1(C)CC2(CN(Cc3ccc(Br)cc3)C(=O)CO2)c2ccccc2O1 (stereo not given)	Active
COc1ccc(CN2CC3(CC(C)(C)Oc4ccccc43)OCC2=O)cc1 (stereo not given)	inactive
CC1(C)CN(C2=CCCC2=O)c2cc(C#N)ccc2S1	Active
CC(=O)Nc1ccc(CN2CCOC3(C2)CC(C)(C)Oc2ccccc23)cc1 (stereo not given)	inactive
CC1(C)CC2(CN(Cc3ccc(C(F)(F)F)cc3)C(=O)CO2)c2cc(Br)ccc2O1 (stereo not given)	inactive
CC(=O)Nc1ccc(CN2C(=N)C3(CC(C)(C)Oc4ccccc43)OC2=O)cc1 (stereo not given)	Active
CC1(C)CC2(CN(Cc3ccccc3)CCO2)c2cc(Br)ccc2O1 (stereo not given)	inactive
